One test addresses T1, c-kit mutant D816V (Homo sapiens, UniProt P10721, D816V/DEL694-753).
T1 construct: residues 551-934, kinase insertion domain residues 694-753 deleted; 6x-histidine (N); made in house; host or cells: E. coli Arctic Express (DE3) RIL (Stratagene)
Nature of the test: c-Kit mutant D816V biochemical assay, AlphaScreen. The settings on record: c-kit D816V biochemical inhibitory activity; read-out: Biochemical activity (IC50 μM) Kit D816V. In short, it runs like this: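 Eight-point, threefold compound series incubated 30 min at room temperature with E. coli-produced D816V kinase, 10 μM ATP, Mg2+/Mn2+ HEPES buffer pH 7.2 and 5% DMSO. After EDTA stop, streptavidin and anti-phosphotyrosine (PY20) AlphaScreen beads gave the read-out, and IC50 was fitted from the concentration–signal curve.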

The next test deals with T2, c-kit kinase (Homo sapiens, UniProt P10721).
T2 construct: The c-kit (or kinase domain thereof) is an active kinase in AlphaScreen; poly-Histidine tag (in-house protein only) (cleaved yes); host or cells: E. coli BL21(DE3)RIL, co-expressed with PTP1B
T2 sequence (P10721 26-976): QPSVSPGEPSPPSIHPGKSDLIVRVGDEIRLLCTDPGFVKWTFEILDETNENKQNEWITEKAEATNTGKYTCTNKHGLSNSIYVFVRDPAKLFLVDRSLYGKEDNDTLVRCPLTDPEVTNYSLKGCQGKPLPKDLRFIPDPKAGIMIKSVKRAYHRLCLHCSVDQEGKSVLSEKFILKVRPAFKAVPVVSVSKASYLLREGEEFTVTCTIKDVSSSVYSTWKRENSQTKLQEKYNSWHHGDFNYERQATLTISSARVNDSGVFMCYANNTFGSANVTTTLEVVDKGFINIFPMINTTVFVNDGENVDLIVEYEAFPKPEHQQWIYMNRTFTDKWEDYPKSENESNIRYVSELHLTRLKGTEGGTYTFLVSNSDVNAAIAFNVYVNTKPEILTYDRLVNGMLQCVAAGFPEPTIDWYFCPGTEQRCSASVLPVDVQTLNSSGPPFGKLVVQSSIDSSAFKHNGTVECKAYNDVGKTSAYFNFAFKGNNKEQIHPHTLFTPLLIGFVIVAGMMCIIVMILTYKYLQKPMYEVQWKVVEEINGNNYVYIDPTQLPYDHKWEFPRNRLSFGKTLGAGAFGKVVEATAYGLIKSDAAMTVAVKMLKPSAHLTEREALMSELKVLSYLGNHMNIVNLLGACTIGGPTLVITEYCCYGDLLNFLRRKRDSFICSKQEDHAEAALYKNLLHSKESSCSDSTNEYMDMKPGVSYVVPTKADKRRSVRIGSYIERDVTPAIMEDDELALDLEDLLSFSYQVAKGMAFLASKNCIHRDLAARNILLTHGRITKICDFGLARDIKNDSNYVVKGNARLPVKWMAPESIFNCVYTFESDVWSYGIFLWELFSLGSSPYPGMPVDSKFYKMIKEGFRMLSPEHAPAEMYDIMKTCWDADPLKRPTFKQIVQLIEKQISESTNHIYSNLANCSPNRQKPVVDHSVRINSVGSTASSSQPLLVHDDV
Nature of the test: c-Kit biochemical assay, AlphaScreen, 10 μM ATP. The settings on record: c-kit biochemical inhibitory activity; read-out: Biochemical activity (IC50 μM) Kit. In short, it runs like this: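 His-tagged c-Kit expressed in E. coli with co-expressed PTP1B (dephosphorylated), tag removed; 0.1 ng per reaction with biotinylated-peptide substrate in 50 mM HEPES pH 7.2, 5 mM MgCl2, 5 mM MnCl2, 5% DMSO, 10 μM ATP, 1 h at room temperature. Phosphorylation detected by AlphaScreen (streptavidin donor, PY20 acceptor beads); IC50 from 8-point 1:3 dilution series.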

T1 sequence (P10721 with tags, fused parts or gaps DEL694-753/D816V): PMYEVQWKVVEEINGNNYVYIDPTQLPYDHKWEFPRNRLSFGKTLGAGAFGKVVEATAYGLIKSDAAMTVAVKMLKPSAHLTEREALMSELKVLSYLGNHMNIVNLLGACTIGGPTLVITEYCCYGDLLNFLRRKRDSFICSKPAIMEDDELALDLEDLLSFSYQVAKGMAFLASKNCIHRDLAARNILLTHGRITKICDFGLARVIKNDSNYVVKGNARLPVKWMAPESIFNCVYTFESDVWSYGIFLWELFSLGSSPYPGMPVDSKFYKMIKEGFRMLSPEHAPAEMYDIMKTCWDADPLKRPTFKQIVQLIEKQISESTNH

With `NS(=O)(=O)c1ccc(-c2cc3c(N4CCN(C(=O)Nc5ccc(OC(F)(F)F)cc5)CC4)ncnc3[nH]2)cc1` [P-0100, 4-[6-(4-sulfamoylphenyl)-7H-pyrrolo[2,3-d]pyrimidin-4-yl]-N-[4-(trifluoromethoxy)phenyl]piperazine-1-carboxamide], the figures for the IC50 at c-kit mutant D816V and on c-kit kinase were 1 to 10 µM and 0.0001 to 1 µM, respectively.

Regarding `O=C(NCc1ccc(F)cc1)N1CCN(c2ncnc3[nH]c(-c4ccncc4)cc23)CC1` [P-0101, N-[(4-fluorophenyl)methyl]-4-[6-(4-pyridyl)-7H-pyrrolo[2,3-d]pyrimidin-4-yl]piperazine-1-carboxamide], the IC50 at c-kit mutant D816V lay in the range of 0.0001 to 1 µM; at c-kit kinase, 1 to 10 µM.

Consider `O=C(Nc1ccc(OC(F)(F)F)cc1)N1CCN(c2ncnc3[nH]c(-c4ccncc4)cc23)CC1` [P-0102, 4-[6-(4-pyridyl)-7H-pyrrolo[2,3-d]pyrimidin-4-yl]-N-[4-(trifluoromethoxy)phenyl]piperazine-1-carboxamide], for which the concentration for half-maximal inhibition (IC50) was 1 to 10 µM at c-kit mutant D816V and 0.0001 to 1 µM on c-kit kinase.

As to `Cc1ccc(-c2cc3c(N4CCN(C(=O)NCc5ccc(F)cc5)CC4)ncnc3[nH]2)cn1` [P-0103, N-[(4-fluorophenyl)methyl]-4-[6-(6-methyl-3-pyridyl)-7H-pyrrolo[2,3-d]pyrimidin-4-yl]piperazine-1-carboxamide], the IC50 on c-kit mutant D816V fell in the range of 0.0001 to 1 µM; at c-kit kinase, 1 to 10 µM.

On to `COc1cc(-c2cc3c(N4CCN(C(=O)NCc5ccc(F)cc5)CC4)ncnc3[nH]2)ccn1` [P-0104, N-[(4-fluorophenyl)methyl]-4-[6-(2-methoxy-4-pyridyl)-7H-pyrrolo[2,3-d]pyrimidin-4-yl]piperazine-1-carboxamide], for which the IC50 at c-kit mutant D816V lay in the range of 1 to 10 µM; on c-kit kinase, 10 to 200 µM.

For the compound `NS(=O)(=O)c1cccc(-c2cc3c(N4CCN(C(=O)NCc5ccc(F)cc5)CC4)ncnc3[nH]2)c1` [P-0105, N-[(4-fluorophenyl)methyl]-4-[6-(3-sulfamoylphenyl)-7H-pyrrolo[2,3-d]pyrimidin-4-yl]piperazine-1-carboxamide], the 50% inhibitory concentration (IC50) is 0.0001 to 1 µM on c-kit mutant D816V and 1 to 10 µM at c-kit kinase.

Consider `COc1ncc(-c2cc3c(N4CCN(C(=O)NCc5ccc(F)cc5)CC4)ncnc3[nH]2)cn1` [P-0106, N-[(4-fluorophenyl)methyl]-4-[6-(2-methoxypyrimidin-5-yl)-7H-pyrrolo[2,3-d]pyrimidin-4-yl]piperazine-1-carboxamide], for which the IC50 at c-kit mutant D816V and at c-kit kinase was 1 to 10 µM in each case.

For `CS(=O)(=O)Nc1cccc(-c2cc3c(N4CCN(C(=O)NCc5ccc(F)cc5)CC4)ncnc3[nH]2)c1` [P-0107, N-[(4-fluorophenyl)methyl]-4-[6-[3-(methanesulfonamido)phenyl]-7H-pyrrolo[2,3-d]pyrimidin-4-yl]piperazine-1-carboxamide], the IC50 at c-kit mutant D816V was 0.0001 to 1 µM; on c-kit kinase, 1 to 10 µM.

As for `NC(=O)c1cccc(-c2cc3c(N4CCN(C(=O)NCc5ccc(F)cc5)CC4)ncnc3[nH]2)c1` [P-0108, 4-[6-(3-carbamoylphenyl)-7H-pyrrolo[2,3-d]pyrimidin-4-yl]-N-[(4-fluorophenyl)methyl]piperazine-1-carboxamide], the IC50 lay within 0.0001 to 1 µM on c-kit mutant D816V and 1 to 10 µM at c-kit kinase.

As to `N#Cc1ccc(-c2cc3c(N4CCN(C(=O)NCc5ccc(F)cc5)CC4)ncnc3[nH]2)cc1` [P-0109, 4-[6-(4-cyanophenyl)-7H-pyrrolo[2,3-d]pyrimidin-4-yl]-N-[(4-fluorophenyl)methyl]piperazine-1-carboxamide], the IC50 lay in the range of 1 to 10 µM at c-kit mutant D816V and 10 to 200 µM at c-kit kinase.

Turning to `N#Cc1cccc(-c2cc3c(N4CCN(C(=O)NCc5ccc(F)cc5)CC4)ncnc3[nH]2)c1` [P-0110, 4-[6-(3-cyanophenyl)-7H-pyrrolo[2,3-d]pyrimidin-4-yl]-N-[(4-fluorophenyl)methyl]piperazine-1-carboxamide], the results for the IC50 at c-kit mutant D816V and on c-kit kinase were 1 to 10 µM and 10 to 200 µM, respectively.

Take `O=C(Nc1ccc(OC(F)(F)F)cc1)N1CCN(c2ncnc3[nH]c(-c4ccc(C5CC5)nc4)cc23)CC1` [P-0111, 4-[6-(6-cyclopropyl-3-pyridyl)-7H-pyrrolo[2,3-d]pyrimidin-4-yl]-N-[4-(trifluoromethoxy)phenyl]piperazine-1-carboxamide]: the 50% inhibitory concentration (IC50) at c-kit mutant D816V lay within 10 to 200 µM; on c-kit kinase, 1 to 10 µM.

As to `O=C(Nc1ccc(OC(F)(F)F)cc1)N1CCN(c2ncnc3[nH]c(-c4cnc(C5CC5)nc4)cc23)CC1` [P-0112, 4-[6-(2-cyclopropylpyrimidin-5-yl)-7H-pyrrolo[2,3-d]pyrimidin-4-yl]-N-[4-(trifluoromethoxy)phenyl]piperazine-1-carboxamide], the IC50 fell in the range of 10 to 200 µM at c-kit mutant D816V and 1 to 10 µM on c-kit kinase.

With `N#CC1(c2ccc(-c3cc4c(N5CCN(C(=O)Nc6ccc(OC(F)(F)F)cc6)CC5)ncnc4[nH]3)cc2)CC1` [P-0113, 4-[6-[4-(1-cyanocyclopropyl)phenyl]-7H-pyrrolo[2,3-d]pyrimidin-4-yl]-N-[4-(trifluoromethoxy)phenyl]piperazine-1-carboxamide], the half-inhibitory concentration (IC50) on c-kit mutant D816V was 1 to 10 µM; on c-kit kinase, 0.0001 to 1 µM.

As to `CN(C)c1ccc(-c2cc3c(N4CCN(C(=O)Nc5ccc(OC(F)(F)F)cc5)CC4)ncnc3[nH]2)cn1` [P-0114, 4-[6-[6-(dimethylamino)-3-pyridyl]-7H-pyrrolo[2,3-d]pyrimidin-4-yl]-N-[4-(trifluoromethoxy)phenyl]piperazine-1-carboxamide], the IC50 at c-kit mutant D816V lay in the range of 1 to 10 µM; on c-kit kinase, 0.0001 to 1 µM.

On to `Cc1ccc(-c2cc3c(N4CCN(C(=O)Nc5ccc(OC(F)(F)F)cc5)CC4)ncnc3[nH]2)cn1` [P-0115, 4-[6-(6-methyl-3-pyridyl)-7H-pyrrolo[2,3-d]pyrimidin-4-yl]-N-[4-(trifluoromethoxy)phenyl]piperazine-1-carboxamide], for which the IC50 lay in the range of 10 to 200 µM at c-kit mutant D816V and 0.0001 to 1 µM on c-kit kinase.

Regarding `CNC(=O)c1cccc(-c2cc3c(N4CCN(C(=O)Nc5ccc(OC(F)(F)F)cc5)CC4)ncnc3[nH]2)c1` [P-0116, 4-[6-[3-(methylcarbamoyl)phenyl]-7H-pyrrolo[2,3-d]pyrimidin-4-yl]-N-[4-(trifluoromethoxy)phenyl]piperazine-1-carboxamide], the 50% inhibitory concentration (IC50) was 10 to 200 µM on c-kit mutant D816V and 0.0001 to 1 µM on c-kit kinase.

On to `COc1cc(-c2cc3c(N4CCN(C(=O)Nc5ccc(OC(F)(F)F)cc5)CC4)ncnc3[nH]2)ccn1` [P-0117, 4-[6-(2-methoxy-4-pyridyl)-7H-pyrrolo[2,3-d]pyrimidin-4-yl]-N-[4-(trifluoromethoxy)phenyl]piperazine-1-carboxamide], for which the IC50 on c-kit mutant D816V lay within 10 to 200 µM; on c-kit kinase, 0.0001 to 1 µM.

Take `COc1ccc(-c2cc3c(N4CCN(C(=O)Nc5ccc(OC(F)(F)F)cc5)CC4)ncnc3[nH]2)cn1` [P-0118, 4-[6-(6-methoxy-3-pyridyl)-7H-pyrrolo[2,3-d]pyrimidin-4-yl]-N-[4-(trifluoromethoxy)phenyl]piperazine-1-carboxamide]: the concentration for half-maximal inhibition (IC50) was in the range of 10 to 200 µM on c-kit mutant D816V and 0.0001 to 1 µM on c-kit kinase.

For `CS(=O)(=O)Nc1cccc(-c2cc3c(N4CCN(C(=O)Nc5ccc(OC(F)(F)F)cc5)CC4)ncnc3[nH]2)c1` [P-0119, 4-[6-[3-(methanesulfonamido)phenyl]-7H-pyrrolo[2,3-d]pyrimidin-4-yl]-N-[4-(trifluoromethoxy)phenyl]piperazine-1-carboxamide], the figures for the IC50 at c-kit mutant D816V and at c-kit kinase were 1 to 10 µM and 0.0001 to 1 µM, respectively.

Take `CC(=O)Nc1cccc(-c2cc3c(N4CCN(C(=O)Nc5ccc(OC(F)(F)F)cc5)CC4)ncnc3[nH]2)c1` [P-0120, 4-[6-(3-acetamidophenyl)-7H-pyrrolo[2,3-d]pyrimidin-4-yl]-N-[4-(trifluoromethoxy)phenyl]piperazine-1-carboxamide]: the results for the IC50 on c-kit mutant D816V and at c-kit kinase were 1 to 10 µM and 0.0001 to 1 µM, respectively.

`N#Cc1cccc(-c2cc3c(N4CCN(C(=O)Nc5ccc(OC(F)(F)F)cc5)CC4)ncnc3[nH]2)c1` [P-0121, 4-[6-(3-cyanophenyl)-7H-pyrrolo[2,3-d]pyrimidin-4-yl]-N-[4-(trifluoromethoxy)phenyl]piperazine-1-carboxamide]: the IC50 on c-kit mutant D816V and on c-kit kinase was 10 to 200 µM throughout.

Consider `O=C(NCc1ccc(Cl)cn1)N1CCN(c2ncnc3[nH]c(-c4cccnc4)cc23)CC1` [P-0123, N-[(5-chloro-2-pyridyl)methyl]-4-[6-(3-pyridyl)-7H-pyrrolo[2,3-d]pyrimidin-4-yl]piperazine-1-carboxamide], for which the IC50 on c-kit mutant D816V and on c-kit kinase was 0.0001 to 1 µM each time.

Turning to `O=C(Nc1ccc(OC(F)F)cc1)N1CCN(c2ncnc3[nH]c(-c4ccc(F)cc4)cc23)CC1` [P-0125, N-[4-(difluoromethoxy)phenyl]-4-[6-(4-fluorophenyl)-7H-pyrrolo[2,3-d]pyrimidin-4-yl]piperazine-1-carboxamide], the IC50 at c-kit mutant D816V is 1 to 10 µM; at c-kit kinase, 0.0001 to 1 µM.

As for `COc1cc(CNC(=O)N2CCN(c3ncnc4[nH]c(-c5cccnc5)cc34)CC2)ccn1` [P-0127, N-[(2-methoxy-4-pyridyl)methyl]-4-[6-(3-pyridyl)-7H-pyrrolo[2,3-d]pyrimidin-4-yl]piperazine-1-carboxamide], the IC50 on c-kit mutant D816V was 1 to 10 µM; at c-kit kinase, 10 to 200 µM.

On to `COc1cccc(CNC(=O)N2CCN(c3ncnc4[nH]c(-c5cccnc5)cc34)CC2)n1` [P-0128, N-[(6-methoxy-2-pyridyl)methyl]-4-[6-(3-pyridyl)-7H-pyrrolo[2,3-d]pyrimidin-4-yl]piperazine-1-carboxamide], for which the IC50 on c-kit mutant D816V fell in the range of 1 to 10 µM; on c-kit kinase, 10 to 200 µM.
